Test results taken from US4996219A, “Imidazolidine derivatives as immunosuppressives” (Boehringer Mannheim GmbH, priority 1988, dated 1991).
≈ marks a conversion by molar mass, not a printed value. Where “and” joins values, the source holds several entries; their conditions need not be identical. Identical values can stand only once.

Tests used:
Mice splenocytes = assay: Concanavalin-A induced lymphocyte proliferation (LPT); format: cell-based
Protocol: (a) Concanavalin-A induced lymphocyte proliferation (LPT)
Mice splenocytes are adjusted in RPMI 1640 medium (with conventional additions of streptomycin, penicillin, L-glutamine and 10% fetal calf serum) to a cell density of 2×10^6 viable cells per ml. 200 μl of this cell suspension are mixed with 20 μl of an 11-fold concentrated solution of the substance to be tested. 0,5 /μg of Concanavalin A in 10 μl of phosphate buffered saline solution (PBS) are added as mitogenic stimulus to each culture. 5 hours before the end of the 48 h incubation period, the individual cultures receive 20 /μl of a 3H-thymidine solution and the proliferation of the cells is determined by means of incorporated radioactivity.
(§1) For the upper two compounds the means plus standard deviations from n experiments are shown.

human T-lymphocytes = assay: Interleukin-2 dependent proliferation of human T-lymphocytes (IL-2); format: cell-based; details: IL-2 stimulated, 48 h, 3H thymidine incorporation, Imexon and Ex. 1: mean ± standard deviation of n experiments, others: single tests No. 1-3; for IC50: Homo sapiens, T-lymphocyte
Protocol: (c) Interleukin-2 dependent proliferation of human T-lymphocytes (IL-2)
The mononuclear cell fraction is separated from heparinized human whole blood by means of a Ficoll gradient. After washing twice, the cell number is adjusted to 1×10^6 ml and incubation is carried out with 3 /μg/ml of Concanavalin A for 3 days. After washing twice, the cell number is set to 5×10^5 cells/ml. 160 /μl of this cell suspension are incubated with 20 /μl IL-2 and 20 /μl of a dilution of the test substance in microtitration plates for a total of 48 h. 4 hours before the end of incubation, ^3 H thymidine is added. The proliferation of the cultures is determined by means of the incorporated radioactivity.
as §1

human B lymphocytes = assay: B-cell growth factor dependent proliferation of human B lymphocytes (BCGF); format: cell-based; details: BCGF stimulated, 140 h, 3H thymidine incorporation, Imexon and Ex. 1: mean ± standard deviation of n experiments, others: single tests No. 1-3; for IC50: Homo sapiens, Lymphocyte
Excerpt: (d) B-cell growth factor dependent proliferation of human B lymphocytes (BCGF). The macrophage/monocytes are removed from the mononuclear cell fraction (see above) by adhesion to plastic petri dishes. T lymphocytes are separated by rosetting with neuraminidase-treated sheep erythrocytes. The enriched human B-lymphocyte population so obtained is adjusted to 3×10^5 /ml. 160 /μl of this suspension together with 10 /μl of BCGF (B cell growth factor) and 20 /μl of the substance dilution to be tested are incubated for a total of 140 h. 16 h before the end of incubation, ^3 H thymidine is added and analysis is carried out as already described. […] For the upper two compounds the means plus standard deviations from n experiments are shown.

[1] = tested on: Meth A fibrosaccoma cell line; assay: Tumor-growth Inhibition Test (TGI); format: cell-based, mice; details: 48 h, 3H thymidine incorporation, Imexon and Ex. 1: mean ± standard deviation of n experiments, others: single tests No. 1-3; for IC50: Mus musculus, Meth-A
Protocol: (b) Tumor-growth Inhibition Test
A Meth A fibrosaccoma cell line is passaged weekly as ascites in mice. After the ascites is punctured, the cells are washed and adjusted to a cell density of 5×10^4 vital cells/ml in the aforementioned medium. 200 /μl of this suspension are pipetted into the cavities of a microtitration plate and solution of the substances to be tested are added as above. 3 hours before the end of the 48 h incubation period ^3 H thymidine is added. The proliferation of the individual cultures is determined by the incorporated radioactive thymidine.
as §1

[2] = Concanavalin A stimulated, 48 h, 3H-thymidine incorporation; Imexon and Ex. 1: mean ± standard deviation of n experiments, others: single tests No. 1-3
[3] = Mus musculus, Splenocyte, Concanavalin A stimulated, 48 h, 3H-thymidine incorporation; Imexon and Ex. 1: mean ± standard deviation of n experiments, others: single tests No. 1-3

Row | SMILES | IC50 (Mice splenocytes; Mus musculus, Splenocyte, 48 h, Concanavalin A stimulated, 3H-thymidine incorporation, Imexon and Ex. 1: mean ± standard deviation of n experiments, others: single tests No. 1-3) | IC50 (human T-lymphocytes) | IC50 (human B lymphocytes) | IC50 [1] | IC50 LPT (Mice splenocytes; [2]) | IC50 (Mice splenocytes; [3]) | IC50 TGI [1] | IC50 BCGF (human B lymphocytes) | IC50 IL 2 (human T-lymphocytes)
1 | C=C1NC(=O)NC1=N [Ex. 1, 4-Imino-5-methyleneimidazolidin-2-one] | 3.9 µg/mL (≈ 35.1 µM) | 2.6 µg/mL (≈ 23.4 µM) | 1.9 µg/mL (≈ 17.1 µM) | > 10.3 µg/mL |  |  |  |  | 
2 | CC=C1NC(=O)NC1=N [Ex. 2, 4-imino-5-ethylideneimidazolidin2-one] |  | > 10 µg/mL |  | 22.6 µg/mL (≈ 181 µM) | 11,1 /μg/ml | 12 µg/mL (≈ 95.9 µM) | > 30 µg⁻¹ mL⁻¹ |  | 
3 | CC(C)=C1NC(=O)NC1=N [Ex. 3, 4-Imino-5-isopropylideneimidazolidin-2-one] |  |  |  |  | 20,7 /μg/ml and > 10 /μg/ml |  |  |  | 
4 | C=C1NC(=O)N(Cc2ccccc2)C1=N [Ex. 4, 3-Benzyl-4-imino-5-methyleneimidazolidin-2-one] |  |  | < 3 µg/mL | 2.8 µg/mL (≈ 13.9 µM) |  |  |  | 1,6 /μg/ml | 
5 | C=C1NC(=O)N(C)C1=N [Ex. BV11, 3-methyl-4-imino-5-methyleneimidazolidin-2-one] |  | ≤ 3 µg/mL |  | 4.2 µg/mL (≈ 33.6 µM) |  |  | 2,3 /μg/ml |  | 
6 | C=C1NC(=O)N(CCC)C1=N [Ex. BV12, 3-n-propyl-4-imino-5-methyleneimidazolidin-2-one] |  | 5.1 µg/mL (≈ 33.3 µM) | 3.2 µg/mL (≈ 20.9 µM) | 7.5 µg/mL (≈ 49 µM) |  |  |  | 2,6 /μg/ml | 4,6 /μg/ml
7 | C=C1NC(=O)N(C2CCCCC2)C1=N [Ex. BV14, 3-cyclohexyl-4-imino-5-methyleneimidazolidin-2-one] |  |  | < 3 µg/mL |  |  |  |  |  | 
8 | C=C1NC(=O)N(Cc2ccncc2)C1=N [Ex. BV16, 3-(4-pyridylmethyl)-4-imino-5-methyleneimidazolidin2-one] |  | 3.5 µg/mL (≈ 17.3 µM) |  | 3.9 µg/mL (≈ 19.3 µM) |  |  | 5,1 /μg/ml and 5,5 /μg/ml |  | 4,8 /μg/ml
9 | C=C1NC(=O)N(c2ccccc2)C1=N [Ex. BV17, 3-phenyl-4-imino-5-methyleneimidazolidin-2-one] |  |  |  | < 3 µg/mL |  |  | 2,1 /μg/ml and 3,5 /μg/ml |  | 
10 | N=C1NC(=O)N2CC12 (centres unmarked) [Imexon, 4-imino-1,3-diazabicyclo[3.1.0]hexan-2-one, reference compound] |  | 5.1 µg/mL (≈ 45.9 µM) | 0.9 µg/mL (≈ 8.1 µM) | 11.3 µg/mL (≈ 102 µM) |  | 6.3 µg/mL (≈ 56.7 µM) |  |  | 
